From patent publication US20230114728A1 (Venatorx Pharmaceuticals, Inc., priority 2019, published 2023)
In brackets after ≈: the same amount, converted by molar mass.

Tests used:
Test in all cases: Broth microdilution MIC in CAMHB
Format in all cases: cell-based
A. baumannii ATCC 19606 = conditions: Acinetobacter baumannii, ATCC19606; MHB; read-out: Minimum Inhibitory Concentration, A. baumannii ATCC 19606
Procedure, shortened: (§1)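 CLSI broth microdilution in CAMHB: 2-fold compound dilutions inoculated at 2-8×10^5 CFU/mL from 3-5 h log-phase cultures. Incubated at 37 °C for 16-20 h (Enterobacteriaceae, Pseudomonas); MIC read visually as lowest concentration without growth. Strains include hyper-permeable and efflux-deficient mutants.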

E. coli 901C = conditions: Escherichia coli; E. coli 901C (hyper-permeable); MHB; read-out: Minimum Inhibitory Concentration, E. coli 901C
Procedure, shortened: as §1

E. coli AG100A = conditions: Escherichia coli, read-out: Minimum Inhibitory Concentration, E. coli AG100A
Procedure, shortened: as §1

E. coli AG100 = conditions: Escherichia coli; E. coli AG100 (wild-type parent); MHB; read-out: Minimum Inhibitory Concentration, E. coli AG100
Procedure, shortened: as §1

E. coli ATCC 25922 = conditions: Escherichia coli, ATCC25922; E. coli ATCC 25922; MHB; read-out: Minimum Inhibitory Concentration, E. coli 25922
Procedure, shortened: as §1

E. coli D22 = conditions: Escherichia coli; E. coli D22 (hyper-permeable); MHB; read-out: Minimum Inhibitory Concentration, E. coli D22
Procedure, shortened: as §1

[1] = test system: K. pneumoniae 848844 producing SHV-11 and KPC-2; conditions: Klebsiella pneumoniae, read-out: Minimum Inhibitory Concentration, K. pneumoniae 848844
Procedure, shortened: as §1

[2] = test system: K. pneumoniae SI-117 producing VIM-1; conditions: Klebsiella pneumoniae, read-out: Minimum Inhibitory Concentration, K. pneumoniae SI-117
Procedure, shortened: as §1

[3] = test system: K. pneumoniae UMM producing SHV-5 and KPC-2; conditions: Klebsiella pneumoniae, read-out: Minimum Inhibitory Concentration, K. pneumoniae UMM
Procedure, shortened: as §1

[4] = test system: P. aeruginosa (ΔmexAB-oprM); conditions: Pseudomonas aeruginosa, read-out: Minimum Inhibitory Concentration, P. aeruginosa ΔmexAB-OprM
Procedure, shortened: as §1

P. aeruginosa ATCC 27853 = conditions: Pseudomonas aeruginosa, ATCC27853; MHB; read-out: Minimum Inhibitory Concentration, P. aeruginosa ATCC 27853
Procedure, shortened: as §1

P. aeruginosa ATCC 35151 = conditions: Pseudomonas aeruginosa, ATCC35151; MHB; hyper-permeable strain; read-out: Minimum Inhibitory Concentration, P. aeruginosa ATCC 35151
Procedure, shortened: as §1

Structure (SMILES)	MIC (A. baumannii ATCC 19606) [µg/mL]	MIC (E. coli 901C) [µg/mL]	MIC (E. coli AG100A) [µg/mL]	MIC (E. coli AG100) [µg/mL]	MIC (E. coli ATCC 25922) [µg/mL]	MIC (E. coli D22) [µg/mL]	MIC [1] [µg/mL]	MIC [2] [µg/mL]	MIC [3] [µg/mL]	MIC [4] [µg/mL]	MIC (P. aeruginosa ATCC 27853) [µg/mL]	MIC (P. aeruginosa ATCC 35151) [µg/mL]
NS(=O)(=O)NC(C(=O)N[C@H]1Cc2ccc(F)c(C(=O)O)c2OB1O)c1ncc(O)cc1F (stereo partly drawn) [Example 43, (3R)-7-fluoro-3-(2-(3-fluoro-5-hydroxypyridin-2-yl)-2-(sulfamoylamino)acetamido)-2-hydroxy-3,4-dihydro-2H-benzo[e][1,2]oxaborinine-8-carboxylic acid]	> 128	> 128	> 128	> 128	> 128	> 128	> 128	> 128	> 128	> 128	> 128	2 to 4 (≈ 4.24 to 8.47 µM)
NS(=O)(=O)NC(C(=O)N[C@H]1Cc2cccc(C(=O)O)c2OB1O)c1ccc(C(=O)O)c(F)c1 (stereo partly drawn) [Example 44, (3R)-3-(2-(4-carboxy-3-fluorophenyl)-2-(sulfamoylamino)acetamido)-2-hydroxy-3,4-dihydro-2H-benzo[e][1,2]oxaborinine-8-carboxylic acid]	> 128	> 128	> 128	> 128	> 128	> 128	> 128	> 128	> 128	> 128	> 128	32 to 64 (≈ 66.5 to 133 µM)
CCN1CCN(C(=O)NC(C(=O)N[C@H]2Cc3cccc(C(=O)O)c3OB2O)c2ccc(C(N)=O)c(O)c2)C(=O)C1=O (stereo partly drawn) [Example 45, (3R)-3-(2-(4-carbamoyl-3-hydroxyphenyl)-2-(4-ethyl-2,3-dioxopiperazine-1-carboxamido)acetamido)-2-hydroxy-3,4-dihydro-2H-benzo[e][1,2]oxaborinine-8-carboxylic acid]	> 128	2 to 4 (≈ 3.53 to 7.05 µM)	2 to 4 (≈ 3.53 to 7.05 µM)	32 to 64 (≈ 56.4 to 113 µM)	32 to 64 (≈ 56.4 to 113 µM)	< 0.25	> 128	> 128	32 to 64 (≈ 56.4 to 113 µM)	2 to 4 (≈ 3.53 to 7.05 µM)	> 128	< 0.25
NC(=O)c1ccc(C(NC(=O)N2CCN(CCF)C(=O)C2=O)C(=O)N[C@H]2Cc3cccc(C(=O)O)c3OB2O)cc1O (stereo partly drawn) [Example 46, (3R)-3-(2-(4-carbamoyl-3-hydroxyphenyl)-2-(4-(2-fluoroethyl)-2,3-dioxopiperazine-1-carboxamido)acetamido)-2-hydroxy-3,4-dihydro-2H-benzo[e][1,2]oxaborinine-8-carboxylic acid]	> 128	2 to 4 (≈ 3.42 to 6.83 µM)	2 to 4 (≈ 3.42 to 6.83 µM)	32 to 64 (≈ 54.7 to 109 µM)	32 to 64 (≈ 54.7 to 109 µM)	< 0.25	> 128	32 to 64 (≈ 54.7 to 109 µM)	32 to 64 (≈ 54.7 to 109 µM)	2 to 4 (≈ 3.42 to 6.83 µM)	> 128	< 0.25
NCCCN1CCN(C(=O)NC(C(=O)N[C@H]2Cc3cccc(C(=O)O)c3OB2O)c2ccc(C(N)=O)c(O)c2)C(=O)C1=O (stereo partly drawn) [Example 47, (3R)-3-(2-(4-(3-aminopropyl)-2,3-dioxopiperazine-1-carboxamido)-2-(4-carbamoyl-3-hydroxyphenyl)acetamido)-2-hydroxy-3,4-dihydro-2H-benzo[e][1,2]oxaborinine-8-carboxylic acid]	> 128	8 to 16 (≈ 13.4 to 26.8 µM)	2 to 4 (≈ 3.35 to 6.71 µM)	> 128	> 128	2 to 4 (≈ 3.35 to 6.71 µM)	> 128	> 128	> 128	2 to 4 (≈ 3.35 to 6.71 µM)	32 to 64 (≈ 53.7 to 107 µM)	< 0.25
CCN1CCN(C(=O)NC(C(=O)N[C@H]2Cc3cccc(C(=O)O)c3OB2O)c2ccc(C(=O)O)c(OC)c2)C(=O)C1=O (stereo partly drawn) [Example 48, (3R)-3-(2-(4-carboxy-3-methoxyphenyl)-2-(4-ethyl-2,3-dioxopiperazine-1-carboxamido)acetamido)-2-hydroxy-3,4-dihydro-2H-benzo[e][1,2]oxaborinine-8-carboxylic acid]	> 128	2 to 4 (≈ 3.43 to 6.87 µM)	8 to 16 (≈ 13.7 to 27.5 µM)	> 128	32 to 64 (≈ 55 to 110 µM)	< 0.25	> 128	> 128	> 128	8 to 16 (≈ 13.7 to 27.5 µM)	> 128	0.5 to 1 (≈ 0.859 to 1.72 µM)
O=C(Nc1ccccc1)NC(C(=O)N[C@H]1Cc2ccc(F)c(C(=O)O)c2OB1O)c1ncc(O)cc1F (stereo partly drawn) [Example 49, (3R)-7-fluoro-3-(2-(3-fluoro-5-hydroxypyridin-2-yl)-2-(3-phenylureido)acetamido)-2-hydroxy-3,4-dihydro-2H-benzo[e][1,2]oxaborinine-8-carboxylic acid]	> 128	32 to 64 (≈ 62.5 to 125 µM)	> 128	> 128	> 128	8 to 16 (≈ 15.6 to 31.2 µM)	> 128	> 128	> 128	32 to 64 (≈ 62.5 to 125 µM)	> 128	2 to 4 (≈ 3.9 to 7.81 µM)
CCN1CCN(C(=O)NC(C(=O)N[C@H]2Cc3cccc(C(=O)O)c3OB2O)c2ccc(N)c(F)c2)C(=O)C1=O (stereo partly drawn) [Example 50, (3R)-3-(2-(4-amino-3-fluorophenyl)-2-(4-ethyl-2,3-dioxopiperazine-1-carboxamido)acetamido)-2-hydroxy-3,4-dihydro-2H-benzo[e][1,2]oxaborinine-8-carboxylic acid]	> 128	< 0.25	2 to 4 (≈ 3.69 to 7.39 µM)	32 to 64 (≈ 59.1 to 118 µM)	32 to 64 (≈ 59.1 to 118 µM)	2 to 4 (≈ 3.69 to 7.39 µM)	> 128	> 128	32 to 64 (≈ 59.1 to 118 µM)	2 to 4 (≈ 3.69 to 7.39 µM)	> 128	0.5 to 1 (≈ 0.924 to 1.85 µM)
N=C(N)NCCN1CCN(C(=O)NC(C(=O)N[C@H]2Cc3ccc(F)c(C(=O)O)c3OB2O)c2ncc(O)cc2F)C(=O)C1=O (stereo partly drawn) [Example 51, (3R)-7-fluoro-3-(2-(3-fluoro-5-hydroxypyridin-2-yl)-2-(4-(2-guanidinoethyl)-2,3-dioxopiperazine-1-carboxamido)acetamido)-2-hydroxy-3,4-dihydro-2H-benzo[e][1,2]oxaborinine-8-carboxylic acid]	> 128	2 to 4 (≈ 3.23 to 6.47 µM)	8 to 16 (≈ 12.9 to 25.9 µM)	32 to 64 (≈ 51.8 to 104 µM)	32 to 64 (≈ 51.8 to 104 µM)	8 to 16 (≈ 12.9 to 25.9 µM)	32 to 64 (≈ 51.8 to 104 µM)	32 to 64 (≈ 51.8 to 104 µM)	8 to 16 (≈ 12.9 to 25.9 µM)	8 to 16 (≈ 12.9 to 25.9 µM)	> 128	0.5 to 1 (≈ 0.809 to 1.62 µM)
N=C(N)NC(C(=O)N[C@H]1Cc2ccc(F)c(C(=O)O)c2OB1O)c1ncc(O)cc1F (stereo partly drawn) [Example 52, (3R)-7-fluoro-3-(2-(3-fluoro-5-hydroxypyridin-2-yl)-2-guanidinoacetamido)-2-hydroxy-3,4-dihydro-2H-benzo[e][1,2]oxaborinine-8-carboxylic acid]	> 128	> 128	> 128	> 128	> 128	> 128	> 128	> 128	> 128	> 128	> 128	> 128
CCN1CCN(C(=O)NC(C(=O)N[C@H]2Cc3cccc(C(=O)O)c3OB2O)c2cccc(O)c2)C(=O)C1=O (stereo partly drawn) [Example 68, (3R)-3-(2-(4-ethyl-2,3-dioxopiperazine-1-carboxamido)-2-(3-hydroxyphenyl)acetamido)-2-hydroxy-3,4-dihydro-2H-benzo[e][1,2]oxaborinine-8-carboxylic acid]	> 128	< 0.25	2 to 4 (≈ 3.81 to 7.63 µM)	32 to 64 (≈ 61 to 122 µM)	32 to 64 (≈ 61 to 122 µM)	2 to 4 (≈ 3.81 to 7.63 µM)	> 128	32 to 64 (≈ 61 to 122 µM)	32 to 64 (≈ 61 to 122 µM)	2 to 4 (≈ 3.81 to 7.63 µM)	> 128	0.5 to 1 (≈ 0.954 to 1.91 µM)
CCN1CCN(C(=O)NC(C(=O)N[C@H]2Cc3cccc(C(=O)O)c3OB2O)c2ccc(O)cc2O)C(=O)C1=O (stereo partly drawn) [Example 69, (3R)-3-(2-(2,4-dihydroxyphenyl)-2-(4-ethyl-2,3-dioxopiperazine-1-carboxamido)acetamido)-2-hydroxy-3,4-dihydro-2H-benzo[e][1,2]oxaborinine-8-carboxylic acid]	> 128	< 0.25	2 to 4 (≈ 3.7 to 7.4 µM)	32 to 64 (≈ 59.2 to 118 µM)	32 to 64 (≈ 59.2 to 118 µM)	2 to 4 (≈ 3.7 to 7.4 µM)	32 to 64 (≈ 59.2 to 118 µM)	32 to 64 (≈ 59.2 to 118 µM)	32 to 64 (≈ 59.2 to 118 µM)	32 to 64 (≈ 59.2 to 118 µM)	> 128	8 to 16 (≈ 14.8 to 29.6 µM)
